According to patent US20070249670A1, “Glycogen Phosphorylase Inhibitor Compounds and Pharmaceutical Compositions Thereof” (SMITHKLINE BEECHAM CORPORATION, priority 2004, published 2007):

The molecules below were run against T1, human liver glycogen phosphorylase a (HLGPa) (Homo sapiens, UniProt P06737) (assay: Human liver glycogen phosphorylase a enzymatic activity assay (coupled, fluorescent resorufin readout, with and without 10 mM glucose)). Settings: human liver glycogen phosphorylase a enzymatic activity assay.
T1 construct: creating a full-length cDNA fused at the 5′ end to codons for methionine-glycine-alanine-histidine; 6xHis tag (leader Met-Gly-Ala-His6-Gly-Gly) (N); made in house; host or cells: E. coli (bacterial expression plasmid pTXK1007LTev)
T1 sequence (P06737 2-847 limits assumed): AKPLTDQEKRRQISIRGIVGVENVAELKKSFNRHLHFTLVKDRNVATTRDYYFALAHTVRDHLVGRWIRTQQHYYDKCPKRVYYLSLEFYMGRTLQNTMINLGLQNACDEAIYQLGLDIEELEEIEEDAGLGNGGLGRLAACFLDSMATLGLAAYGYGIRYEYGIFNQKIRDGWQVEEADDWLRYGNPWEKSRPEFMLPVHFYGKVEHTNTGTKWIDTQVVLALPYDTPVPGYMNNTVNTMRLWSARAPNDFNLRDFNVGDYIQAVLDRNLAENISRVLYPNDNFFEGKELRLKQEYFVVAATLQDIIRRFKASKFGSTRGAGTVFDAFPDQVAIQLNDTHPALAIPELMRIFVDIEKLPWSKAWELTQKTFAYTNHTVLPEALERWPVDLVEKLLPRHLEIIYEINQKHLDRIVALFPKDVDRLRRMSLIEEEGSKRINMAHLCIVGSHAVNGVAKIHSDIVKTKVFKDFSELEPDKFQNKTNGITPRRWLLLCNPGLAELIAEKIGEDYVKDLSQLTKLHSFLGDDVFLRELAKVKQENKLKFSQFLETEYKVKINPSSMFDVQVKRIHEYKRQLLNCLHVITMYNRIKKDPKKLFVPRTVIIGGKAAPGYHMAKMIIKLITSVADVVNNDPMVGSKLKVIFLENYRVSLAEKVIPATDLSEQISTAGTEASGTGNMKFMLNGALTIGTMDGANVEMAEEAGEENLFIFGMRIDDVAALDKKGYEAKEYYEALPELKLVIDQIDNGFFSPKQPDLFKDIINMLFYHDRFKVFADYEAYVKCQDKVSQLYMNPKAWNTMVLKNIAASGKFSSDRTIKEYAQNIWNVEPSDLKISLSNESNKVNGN
Assay type: biochemical

Compound	IC50
CC[C@H](C)[C@H](NC(=O)c1c(NC(=O)Nc2c(C)cccc2C)sc2c1CCCC2)C(=O)O [Example 126, N-{[2-({[(2,6-dimethylphenyl)amino]carbonyl}amino)-4,5,6,7-tetrahydro-1-benzothien-3-yl]carbonyl}-L-isoleucine]	13900 nM
Cc1cccc(Cl)c1NC(=O)Nc1cc2ccccc2cc1C(=O)N[C@@H](CCCNC(=N)N)C(=O)O [Example 63, N-[3-({[(2-chloro-6-methylphenyl)amino]carbonyl}amino)-2-naphthoyl]-L-arginine]	2730 nM
COc1ccc(-c2cc(NC(=O)Nc3c(Cl)cc(OC(F)(F)F)cc3Cl)c(C(=O)N[C@H](C(=O)O)C3CCCCC3)s2)cc1 [Example 433, (2S)-cyclohexyl[({3-{[({2,6-dichloro-4-[(trifluoromethyl)oxy]phenyl}amino)carbonyl]amino}-5-[4-(methyloxy)phenyl]-2-thienyl}carbonyl)amino]ethanoic acid]	80 nM
Cc1cc(C)c(NC(=O)Nc2cc(-c3ccc(OC(F)(F)F)cc3)sc2C(=O)O)c(C)c1 [Example 436, 5-{4-[(trifluoromethyl)oxy]phenyl}-3-({[(2,4,6-trimethylphenyl)amino]carbonyl}amino)-2-thiophenecarboxylic acid]	1570 nM
C[C@H](NC(=O)c1cc2ccccc2cc1NC(=O)Nc1ccccc1Cl)C(=O)O [Example 27, N-[3-({[(2-chlorophenyl)amino]carbonyl}amino)-2-naphthoyl]-L-alanine]	13500 nM
Cc1cccc(Cl)c1NC(=O)Nc1sc2c(c1C(=O)N[C@@H](CC(C)C)C(=O)O)CCCC2 [Example 130, N-{[2-({[(2-chloro-6-methylphenyl)amino]carbonyl}amino)-4,5,6,7-tetrahydro-1-benzothien-3-yl]carbonyl}-L-leucine]	18000 nM
CC[C@H](C)[C@H](NC(=O)c1cc2ccccc2cc1NC(=O)Nc1ccccc1C)C(=O)O [Example 15, N-[3-({[(2-methylphenyl)amino]carbonyl}amino)-2-naphthoyl]-L-isoleucine]	11000 nM
COc1ccc(-c2cc(NC(=O)Nc3c(C)cc(C)cc3C)c(C(=O)N[C@H](C(=O)O)C(C)C)s2)cc1 [Example 440]	100 nM
O=C(O)C[C@H](NC(=O)c1cc2ccccc2cc1NC(=O)Nc1ccccc1Cl)C(=O)O [Example 151, N-{[3-({[(2-chlorophenyl)amino]carbonyl}amino)-2-naphthalenyl]carbonyl}-L-aspartic acid]	1550 nM
COC(=O)[C@@H](NC(=O)c1cc(C(C)C)sc1NC(=O)Nc1c(Cl)cccc1Cl)C1CCCCC1 [Example 395, methyl(2S)-cyclohexyl({[2-({[(2,6-dichlorophenyl)amino]carbonyl}amino)-5-(1-methylethyl)-3-thienyl]carbonyl}amino)ethanoate]	4490 nM
COc1ccc(-c2cc(NC(=O)Nc3c(C)cc(C)cc3C)c(C(=O)NC3(C(=O)O)CCCCCCC3)s2)cc1 [Example 454, 1-({[5-[4-(methyloxy)phenyl]-3-({[(2,4,6-trimethylphenyl)amino]carbonyl}amino)-2-thienyl]carbonyl}amino)cyclooctanecarboxylic acid]	1 nM

The remaining lines, values ahead:

IC50	Compound
163 nM	Cc1cccc(C)c1NC(=O)Nc1cc(-c2ccccc2)ccc1C(=O)N[C@H](C(=O)O)C1CCCCC1 [Example 175, (2S)-Cyclohexyl({[3-({[(2,6-dimethylphenyl)amino]carbonyl}amino)-4-biphenylyl]carbonyl}amino)ethanoic acid]
1710 nM	Cc1cccc(Cl)c1NC(=O)Nc1cc2ccccc2cc1C(=O)N[C@H](C(=O)O)C(C)C [Example 36, N-[3-({[(2-chloro-6-methylphenyl)amino]carbonyl}amino)-2-naphthoyl]-L-valine]
590 nM	Cc1cccc(C)c1NC(=O)Nc1cc2ccccc2cc1C(=O)N[C@@H](CC1CCCCC1)C(=O)O [Example 145, 3-cyclohexyl-N-{[3-({[(2,6-dimethylphenyl)amino]carbonyl}amino)-2-naphthalenyl]carbonyl}-L-alanine]
60 nM	Cc1cc(C)c(NC(=O)Nc2cc3ccccc3cc2C(=O)NC(C(=O)O)c2ccccc2)c(C)c1 (stereo not drawn) [Example 103, Phenyl({[3-({[(2,4,6-trimethylphenyl)amino]carbonyl}amino)-2-naphthalenyl]carbonyl}amino)acetic acid]
14700 nM	Cc1cccc(C)c1NC(=O)Nc1cc(F)c(F)cc1C(=O)N[C@@H](Cc1ccccc1)C(=O)O [Example 81, N-[2-({[(2,6-dimethylphenyl)amino]carbonyl}amino)-4,5-difluorobenzoyl]-L-phenylalanine]
58 nM	CCc1cccc(C)c1NC(=O)Nc1cc2ccccc2cc1C(=O)N[C@H](C(=O)O)C1CCCCC1 [Example 159, (2S)-cyclohexyl{[3-({[(2-ethyl-6-methylphenyl)amino]carbonyl}amino)-2-naphthoyl]amino}ethanoic acid]
600 nM	Cc1cccc(Cl)c1NC(=O)Nc1cc2ccccc2cc1C(=O)N[C@@H](CC(C)C)C(=O)O [Example 39, N-[3-({[(2-chloro-6-methylphenyl)amino]carbonyl}amino)-2-naphthoyl]-L-leucine]
1630 nM	O=C(Nc1cc(-c2ccc(OC(F)(F)F)cc2)sc1C(=O)N[C@H](C(=O)O)C1CCCCC1)Nc1c(Cl)cccc1Cl [Example 435, (2S)-cyclohexyl{[(3-({[(2,6-dichlorophenyl)amino]carbonyl}amino)-5-{4-[(trifluoromethyl)oxy]phenyl}-2-thienyl)carbonyl]amino}ethanoic acid]
770 nM	Cc1cccc(C)c1NC(=O)Nc1cc(Cl)ccc1C(=O)N[C@@H](CC(=O)O)C(=O)O [Example 174, N-{[4-Chloro-2-({[(2,6-dimethylphenyl)amino]carbonyl}amino)phenyl]carbonyl}-L-aspartic acid]
14 nM	Cc1cc(C)c(NC(=O)Nc2cc(-c3ccc([N+](=O)[O-])cc3)ccc2C(=O)N[C@H](C(=O)O)C2CCCCC2)c(C)c1 [Example 197, (2S)-Cyclohexyl({[4′-nitro-3-({[(2,4,6-trimethylphenyl)amino]carbonyl}amino)-4-biphenylyl]carbonyl}amino)ethanoic acid]

Same assay, conditions: human liver glycogen phosphorylase a; table does not say whether with or without 10 mM glucose

IC50	Compound
6 nM	Cc1cc(C)c(NC(=O)Nc2cc(-c3ccc(CN4CCCC4)cc3)ccc2C(=O)N[C@H](C(=O)O)C2CCCCC2)c(C)c1 [Example 216, (2S)-Cyclohexyl({[4′-(1-pyrrolidinylmethyl)-3-({[(2,4,6-trimethylphenyl)amino]carbonyl}amino)-4-biphenylyl]carbonyl}amino)ethanoic acid]
6 nM	Cc1cc(C)c(NC(=O)Nc2cc3ccccc3cc2C(=O)N[C@H](C(=O)O)[C@H]2CCCC(O)C2)c(C)c1 (stereo partly drawn) [Example 359, (2S)-[(1S)-3-hydroxycyclohexyl]({[3-({[(2,4,6-trimethylphenyl)amino]carbonyl}amino)-2-naphthalenyl]carbonyl}amino)ethanoic acid]
480 nM	O=C(Nc1cc2ccccc2nc1C(=O)N[C@H](C(=O)O)C1CCCCC1)Nc1c(Cl)cc(Cl)cc1Cl [Example 299, (2S)-Cyclohexyl({[3-({[(2,4,6-trichlorophenyl)amino]carbonyl}amino)-2-quinolinyl]carbonyl}amino)ethanoic acid]
